US4578245A, “Multilayer analytical element” (Fuji Photo Film Co., Ltd., priority 1982, dated 1986)

assay: Relative Sensitivity in Aqueous Solution System (color formation with H2O2, peroxidase and 1,7-dihydroxynaphthalene); settings: relative steepness of calibration curve; reference (C1) = 1.0; pH 6.0; 37° C., 10 min; 515 nm
Procedure: The following color-forming composition solutions were prepared using, as coupler, 1,7-dihydroxynaphthalene and, as chromogen, the compounds (1), (6), (7), (18), (C1) and (C2), respectively.
1,7-Dihydroxynaphthalene: 50 μmol
Phosphate buffer: added to adjust to pH 6.0
The color-forming solution having the above composition (5 ml.) was incubated at 37° C. for 3 min., and subsequently 50 μl. of aqueous H2 O2 solution (four levels from 1 mmol to 6 mmol and blank, respectively) was dropped into the incubated color-forming solution. The solution was further incubated at 37° C. for 10 min., and immediately subjected to transmissive spectroscopy at the wavelength of 515 nm for measurement of optical density of the formed color. The relationships between the H2 O2 concentrations and the measured optical density values on the formed color (the value was calculated by subtracting an optical density of the color formed in the blank solution from an optical density of the color formed in the aqueous H2 O2 incorporated solution) were plotted on an orthgonal axes graph to determine the steepness of slope of the calibration curve. The relative sensitivity of each compound is set forth in Table 6 in terms of a relative steepness value based on the reference steepness obtained in the measurement on the solution using the compound (C1). In Table 6, the reference steepness is given as 1.0.

| SMILES | Relative Sensitivity (aq. sol.) |
| --- | --- |
| Cn1c(-c2ccccc2)c(N)c(=O)n1C [(C2), reference compound] | 0.77 |
| Cc1c(N)c(=O)n(-c2cccc(Cl)c2)n1C [(1)] | 0.99 |
| Cn1c(-c2ccccc2)c(N)c(=O)n1-c1ccccc1 [(18)] | 0.82 |
| Cc1c(N)c(=O)n(-c2ccccc2)n1C [Compound (C1), 4-amino-2,3-dimethyl-1-phenyl-3-pyrazolin-5-one, reference compound] | 1.0 |
| Cc1c(N)c(=O)n(-c2c(Cl)cc(Cl)cc2Cl)n1C [Compound (6)] | 0.70 |
